# Values of other authors in patent publication US20150290272A1, “PHARMACEUTICAL COMPOSITION FOR PREVENTING/TREATING BRAIN INJURY AND ENHANCING RECOVERY OF SEQUELAE AND MANUFACTURE THEREOF” (PhytoHealth Corporation, priority 2014, published 2015).
# Tested on: acute ischemic stroke
substance,measurement,setting,value
rtPA: thrombolysis agent recombinant tissue plasminogen activator (rt-PA) (Actilyse) for acute ischemic stroke,increase in the number of people living without disability,"at three to six months, 2014 review",5%
same,overall benefit with respect to living without disability,given within three hours of symptom onset,10%
same,increased risk of death,"in the short term, 2014 review",2%
same,people with large strokes who developed substantial brain hemorrhage as a complication,in vivo,6.4%
